Test system: T4 DNA ligase
Assay: blunt-end DNA ligation assay, effect on T4 DNA ligase
Type: biochemical, bacteriophage T4
Conditions: pH 7.5

In the case of “gp45: T4 sliding clamp, trimeric processivity factor for DNA polymerase”, the “stimulation of blunt-end ligation activity of T4 DNA ligase” value is reported as “did not stimulate”.

Source: PMC6212786 (Nucleic Acids Research, 2018)
